Laboratory results: ChEMBL document CHEMBL5390242, “Design, Synthesis, and Antitumor Efficacy of Substituted 2-Amino[1,2,4]triazolopyrimidines and Related Heterocycles as Dual Inhibitors for Microtubule Polymerization and Janus Kinase 2” (J Med Chem, 2023)
Activity calls are given as the source filed them. The rule behind the calls is not given here.

How the values were obtained:
BXPC-3 = assay: Antiproliferative activity against human BXPC-3 cells assessed as cell growth inhibition incubated for 48 hrs by MTT assay; assay type: functional, cell-based; conditions: BXPC-3, 48 h
KP-4 = assay: Antiproliferative activity against human KP-4 cells assessed as cell growth inhibition incubated for 48 hrs by MTT assay; assay type: functional, cell-based; conditions: KP-4, 48 h
MCF7 = assay: cells; conditions: Homo sapiens, MCF7, 48 h
Description: Antiproliferative activity against human MCF7 cells assessed as cell growth inhibition incubated for 48 hrs by MTT assay

A549 = assay: Antiproliferative activity against human A549 cells assessed as cell growth inhibition incubated for 48 hrs by MTT assay; assay type: functional, cell-based; conditions: A549, 48 h
HeLa = assay: Antiproliferative activity against human HeLa cells assessed as cell growth inhibition incubated for 48 hrs by MTT assay; assay type: functional, cell-based
[1] = biological target: T1, Tyrosine-protein kinase JAK2 (Homo sapiens, UniProt O60674); assay: Inhibition of JAK2 (unknown origin) using Poly-(Glu,Tyr 4:1) peptide as substrate at 1 uM in presence of ATP by ADP-Glo reagent based assay relative to control
[2] = biological target: T1, Tyrosine-protein kinase JAK2; assay: Inhibition of JAK2 (unknown origin) using Poly-(Glu,Tyr 4:1) peptide as substrate in presence of ATP by ADP-Glo reagent based assay
Tubulin = Tubulin (Sus scrofa, UniProt P02554+P02550); assay: Inhibition of porcine brain tubulin polymerization measured for 30 mins in presence of GTP by microplate reader assay; assay type: tissue-based
[3] = Antiproliferative activity against human HCT-8/VCR cells assessed as cell growth inhibition incubated for 48 hrs by MTT assay; assay type: functional, cell-based
[4] = biological target: Tubulin beta (Homo sapiens) (UniProt P68371+Q9H4B7+Q13509+P04350+Q3ZCM7+P07437+Q13885+Q9BVA1+Q9BUF5+A6NNZ2); assay: Binding affinity to beta-tubulin colchicine binding site in human A549 cells assessed as inhibition of EBI-beta-tubulin adduct band formation at 5 to 25 uM preincubated for 2 hrs followed by EBI addition measured after 1.5 hrs by EBI competition based Western blotting analysis; assay type: cell-based; conditions: dose 5-25 µM
HCT-8 = assay: Antiproliferative activity against human HCT-8 cells assessed as cell growth inhibition incubated for 48 hrs by MTT assay; assay type: functional, cell-based; conditions: HCT-8, 48 h
[5] = Resistance index, ratio of IC50 for antiproliferative activity against human HCT-8/VCR cells to IC50 for antiproliferative activity against human HCT-8 cells; assay type: functional
A2780/Taxol = assay: Antiproliferative activity against human A2780T cells assessed as cell growth inhibition incubated for 48 hrs by MTT assay; assay type: functional, cell-based

T1 sequence (O60674 whole entry): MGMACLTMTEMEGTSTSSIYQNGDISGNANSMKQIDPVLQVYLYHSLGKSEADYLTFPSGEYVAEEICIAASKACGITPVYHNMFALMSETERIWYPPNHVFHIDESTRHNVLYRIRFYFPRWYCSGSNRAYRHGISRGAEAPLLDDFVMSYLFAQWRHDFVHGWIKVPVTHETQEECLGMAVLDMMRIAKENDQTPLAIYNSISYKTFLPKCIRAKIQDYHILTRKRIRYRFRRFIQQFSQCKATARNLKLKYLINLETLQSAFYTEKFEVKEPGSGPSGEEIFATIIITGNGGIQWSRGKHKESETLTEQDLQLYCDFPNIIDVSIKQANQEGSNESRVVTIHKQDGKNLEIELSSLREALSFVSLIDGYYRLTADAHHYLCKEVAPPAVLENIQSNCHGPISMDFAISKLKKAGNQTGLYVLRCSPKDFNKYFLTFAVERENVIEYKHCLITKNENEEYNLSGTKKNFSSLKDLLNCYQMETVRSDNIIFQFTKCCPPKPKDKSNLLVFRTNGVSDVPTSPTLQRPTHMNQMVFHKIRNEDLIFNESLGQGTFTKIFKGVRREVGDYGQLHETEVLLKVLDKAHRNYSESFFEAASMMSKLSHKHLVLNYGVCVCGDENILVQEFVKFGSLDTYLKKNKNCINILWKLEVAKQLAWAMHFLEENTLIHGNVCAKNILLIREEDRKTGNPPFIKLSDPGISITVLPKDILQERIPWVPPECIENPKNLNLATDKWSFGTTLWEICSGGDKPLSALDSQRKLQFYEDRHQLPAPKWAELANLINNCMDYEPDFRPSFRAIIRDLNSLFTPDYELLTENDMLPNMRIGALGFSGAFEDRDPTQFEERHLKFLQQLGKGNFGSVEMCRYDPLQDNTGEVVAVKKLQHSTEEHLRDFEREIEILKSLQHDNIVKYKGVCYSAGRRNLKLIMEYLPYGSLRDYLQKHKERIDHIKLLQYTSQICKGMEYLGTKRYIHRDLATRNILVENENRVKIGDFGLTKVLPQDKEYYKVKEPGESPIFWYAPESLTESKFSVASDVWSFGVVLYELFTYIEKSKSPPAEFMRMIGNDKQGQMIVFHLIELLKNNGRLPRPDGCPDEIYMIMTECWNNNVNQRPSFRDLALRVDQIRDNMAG

SMILES	IC50 (BXPC-3) [nM]	IC50 (KP-4) [nM]	IC50 (MCF7) [nM]	IC50 (A549) [nM]	IC50 (HeLa) [nM]	inhibition [1] [%]	IC50 [2] [nM]	IC50 (Tubulin) [nM]	IC50 [3] [nM]	Activity [4]	IC50 (HCT-8) [nM]	Ratio IC50 [5]	IC50 (A2780/Taxol) [nM]
COc1cc(-c2nccc3nc(Nc4cccc5ccn(C)c45)nn23)cc(OC)c1OC	> 10000	> 10000	> 10000	> 10000	> 10000								
COc1cc(-c2cncc3nc(Nc4cccc5[nH]ccc45)nn23)cc(OC)c1OC	88	431	26	2530	41								
COc1cc(-c2nccc3nc(Nc4ccc(C)c(O)c4)nn23)cc(OC)c1OC	355	2180	326	354	312	46							
COc1ccc(-c2ccc3nnc(Nc4cc(OC)c(OC)c(OC)c4)n3c2)cc1O	5960	4670	3500	3940	11300								
COc1ccc(Nc2nc3ccnc(-c4cc(OC)c(OC)c(OC)c4)n3n2)cc1N	176	1800	189	201	117	86	326	4200					
COc1cc(-c2nccc3nc(Nc4ccc5[nH]ccc5c4)nn23)cc(OC)c1OC	20	352	36	81	131	96	90	8800					
COc1cc(Nc2nc3ccnc(-c4cccc5[nH]ccc45)n3n2)cc(OC)c1OC	692	714	267	1860	982								
COCOc1cc(Nc2nc3ccnc(-c4cc(OC)c(OC)c(OC)c4)n3n2)ccc1C	> 10000	> 10000	> 10000	> 10000	> 10000								
COc1cc(-c2nccc3nc(Nc4ccc5cc[nH]c5c4)nn23)cc(OC)c1OC	107	610	256	85	209	29							
COCOc1cc(Nc2nc3ccnc(-c4cc(OC)c(OC)c(OC)c4)n3n2)ccc1OC	3960	> 10000	1500	> 10000	> 10000								
COc1ccc(Nc2nc3ccnc(-c4cc(OC)c(OC)c(OC)c4)n3n2)cc1[N+](=O)[O-]	1420	5460	951	2400	593								
CC[C@]1(O)C[C@H]2CN(CCc3c([nH]c4ccccc34)[C@@](C(=O)OC)(c3cc4c(cc3OC)N(C=O)[C@H]3[C@@](O)(C(=O)OC)[C@H](OC(C)=O)[C@]5(CC)C=CCN6CC[C@]43[C@@H]65)C2)C1 [VINCRISTINE]									2920	inactive	173	16.9	
COc1cc(-c2nccc3nc(Nc4cccc5cc[nH]c45)nn23)cc(OC)c1OC	2410	1200	325	257	2580	1.7							
CC(=O)O[C@H]1C(=O)[C@@]2(C)[C@H]([C@H](OC(=O)c3ccccc3)[C@]3(O)C[C@H](OC(=O)[C@H](O)[C@@H](NC(=O)c4ccccc4)c4ccccc4)C(C)=C1C3(C)C)[C@]1(OC(C)=O)CO[C@@H]1C[C@@H]2O [PACLITAXEL]	11	7	7		7								319
